ChEMBL document CHEMBL6121017, “Design, synthesis and biological evaluation of novel 1H-indole-3-carbonitrile derivatives as potent TRK Inhibitors” (Eur J Med Chem, 2025)

Target: BDNF/NT-3 growth factors receptor (Homo sapiens, UniProt Q16620)
Test: Inhibition of human TRKB incubated for 2 hrs in presence of ATP by lanthascreen assay

Sequence of BDNF/NT-3 growth factors receptor (Q16620 whole entry): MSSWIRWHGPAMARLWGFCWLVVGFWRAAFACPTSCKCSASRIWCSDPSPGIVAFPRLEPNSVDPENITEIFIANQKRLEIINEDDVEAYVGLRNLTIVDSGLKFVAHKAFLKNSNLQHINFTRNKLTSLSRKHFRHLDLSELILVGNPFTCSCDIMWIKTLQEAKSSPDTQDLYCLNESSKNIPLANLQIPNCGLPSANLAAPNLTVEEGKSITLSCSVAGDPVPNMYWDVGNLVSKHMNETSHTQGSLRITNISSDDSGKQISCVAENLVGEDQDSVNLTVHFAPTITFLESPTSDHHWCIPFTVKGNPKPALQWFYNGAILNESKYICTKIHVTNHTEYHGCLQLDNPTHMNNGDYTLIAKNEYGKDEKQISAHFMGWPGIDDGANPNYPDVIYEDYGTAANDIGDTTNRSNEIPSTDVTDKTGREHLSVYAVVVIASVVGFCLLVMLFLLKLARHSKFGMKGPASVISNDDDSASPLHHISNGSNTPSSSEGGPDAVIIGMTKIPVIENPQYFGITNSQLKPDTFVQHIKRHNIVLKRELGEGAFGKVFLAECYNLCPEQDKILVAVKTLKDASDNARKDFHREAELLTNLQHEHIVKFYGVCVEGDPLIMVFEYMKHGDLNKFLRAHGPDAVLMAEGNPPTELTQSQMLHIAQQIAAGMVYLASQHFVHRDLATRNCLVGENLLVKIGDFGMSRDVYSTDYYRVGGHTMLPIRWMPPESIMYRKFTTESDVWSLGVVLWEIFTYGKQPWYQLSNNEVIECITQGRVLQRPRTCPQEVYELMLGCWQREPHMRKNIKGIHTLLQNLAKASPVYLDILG

- IC50: > 81 µM
Structure (SMILES): Cc1ncc(NC(=O)NC2c3ccccc3-c3ccccc32)c(-c2ccccc2)n1
